Common to all, as to test: LPS-stimulated whole bovine blood assay, MSD cytokine detection
Format in all cases: cell-based

One test relates to IL-6. The note with it: Bos taurus, LPS-stimulated bovine whole blood; read-out: IL-6 (IC50 μM). The source says:
In order to correlate RNA sequencing data to cytokine changes the whole blood assay was utilized. […] The enhancement result represents an overall stimulation of cytokine levels due to cellular stress or potential toxicity with increasing concentrations of the compound, representing a typical bell shape response curve for immunomodulatory activity.

A further test relates to IL-1β. The settings on record: overstimulation of IL-1β, LPS-stimulated bovine whole blood.
The test system of another test is TNF-α. The note with it: Bos taurus, LPS-stimulated bovine whole blood; read-out: TNF-α (IC50 μM).

Broadly, the IC50 is the concentration at which inhibition is half-maximal.

With `CC[C@H]1OC(=O)[C@H](C)[C@@H](O)[C@H](C)[C@@H](O[C@@H]2O[C@H](C)C[C@H](N(C)C(=O)Nc3ccncc3)[C@H]2O)[C@](C)(O)C[C@@H](C)CN[C@H](C)[C@@H](O)[C@]1(C)O` [Example A-5, 1-((2S,3R,4S,6R)-2-(((2R,3S,4R,5R,8R,10R,11R,12S,13S,14R)-2-ethyl-3,4,10,13-tetrahydroxy-3,5,8,10,12,14-hexamethyl-15-oxo-1-oxa-6-azacyclopentadecan-11-yl)oxy)-3-hydroxy-6-methyltetrahydro-2H-pyran-4-yl)-1-methyl-3-(pyridin-4-yl)urea], the IC50 in the test with IL-6 and with TNF-α was greater than 250 µM throughout. In the test with IL-1β, the “IL-1β OS of LPS” value was 24 µM.
`CC[C@H]1OC(=O)[C@H](C)[C@@H](O)[C@H](C)[C@@H](O[C@@H]2O[C@H](C)C[C@H](N(C)C(=O)Nc3ccccc3OC)[C@H]2O)[C@](C)(O)C[C@@H](C)CN[C@H](C)[C@@H](O)[C@]1(C)O` [Example A-8, 1-((2S,3R,4S,6R)-2-(((2R,3S,4R,5R,8R,10R,11R,12S,13S,14R)-2-ethyl-3,4,10,13-tetrahydroxy-3,5,8,10,12,14-hexamethyl-15-oxo-1-oxa-6-azacyclopentadecan-11-yl)oxy)-3-hydroxy-6-methyltetrahydro-2H-pyran-4-yl)-3-(2-methoxyphenyl)-1-methylurea]: the concentration for half-maximal inhibition (IC50) in the test on IL-6 is 16 µM; with TNF-α, greater than 250 µM. The “IL-1β OS of LPS” value with IL-1β was 101 µM.
As to `CC[C@H]1OC(=O)[C@H](C)[C@@H](O)[C@H](C)[C@@H](O[C@@H]2O[C@H](C)C[C@H](N(C)C(=O)Nc3ccccc3)[C@H]2O)[C@](C)(O)C[C@@H](C)CN[C@H](C)[C@@H](O)[C@]1(C)O` [Example A-13, 1-((2S,3R,4S,6R)-2-(((2R,3S,4R,5R,8R,10R,11R,12S,13S,14R)-2-ethyl-3,4,10,13-tetrahydroxy-3,5,8,10,12,14-hexamethyl-15-oxo-1-oxa-6-azacyclopentadecan-11-yl)oxy)-3-hydroxy-6-methyltetrahydro-2H-pyran-4-yl)-1-methyl-3-phenylurea], the values for the IC50 with IL-6 and with TNF-α were greater than 500 µM and 200 µM, respectively. In addition, the “IL-1β OS of LPS” value in the test with IL-1β was greater than 500 µM.
As to `CC[C@H]1OC(=O)[C@H](C)[C@@H](O[C@H]2C[C@@](C)(OC)[C@@](C)(O)[C@H](C)O2)[C@H](C)[C@@H](O[C@@H]2O[C@H](C)C[C@H](N(C)C(=O)N(C)c3ccccc3)[C@H]2O)[C@](C)(O)C[C@@H](C)CN[C@H](C)[C@@H](O)[C@]1(C)O` [Example B-1, 1-((2S,3R,4S,6R)-2-(((2R,3S,4R,5R,8R,10R,11R,12S,13S,14R)-2-ethyl-3,4,10-trihydroxy-13-(((2R,4R,5S,6S)-5-hydroxy-4-methoxy-4,5,6-trimethyltetrahydro-2H-pyran-2-yl)oxy)-3,5,8,10,12,14-hexamethyl-15-oxo-1-oxa-6-azacyclopentadecan-11-yl)oxy)-3-hydroxy-6-methyltetrahydro-2H-pyran-4-yl)-1,3-dimethyl-3-phenylurea], the figures for the IC50 in the test with IL-6 and in the test on TNF-α were 31 µM and 25 µM, respectively. Besides, the “IL-1β OS of LPS” value in the test on IL-1β came out at 40 µM.
For the molecule `CC[C@H]1OC(=O)[C@H](C)[C@@H](O[C@H]2C[C@@](C)(OC)[C@H](O)[C@H](C)O2)[C@H](C)[C@@H](O[C@@H]2O[C@H](C)C[C@H](N(C)C(=O)N(C)c3ccc(C(F)(F)F)cc3)[C@H]2O)[C@](C)(O)C[C@@H](C)CN[C@H](C)[C@@H](O)[C@]1(C)O` [Example B-2a, 1-((2S,3R,4S,6R)-2-(((2R,3S,4R,5R,8R,10R,11R,12S,13S,14R)-2-ethyl-3,4,10-trihydroxy-13-(((2R,4R,5R,6S)-5-hydroxy-4-methoxy-4,6-dimethyltetrahydro-2H-pyran-2-yl)oxy)-3,5,8,10,12,14-hexamethyl-15-oxo-1-oxa-6-azacyclopentadecan-11-yl)oxy)-3-hydroxy-6-methyltetrahydro-2H-pyran-4-yl)-1,3-dimethyl-3-(4-(trifluoromethyl)phenyl)urea], the IC50 with IL-6 is 23 µM; in the test on TNF-α, 9 µM. Moreover, the “IL-1β OS of LPS” value in the test on IL-1β turned out to be 16 µM.
Consider `CC[C@H]1OC(=O)[C@H](C)[C@@H](O[C@H]2C[C@@](C)(OC)[C@@H](O)[C@H](C)O2)[C@H](C)[C@@H](O[C@@H]2O[C@H](C)C[C@H](N(C)C(=O)N(C)c3ccccc3)[C@H]2O)[C@](C)(O)C[C@@H](C)CN[C@H](C)[C@@H](O)[C@]1(C)O` [Example B-3, 1-((2S,3R,4S,6R)-2-(((2R,3S,4R,5R,8R,10R,11R,12S,13S,14R)-2-ethyl-3,4,10-trihydroxy-13-(((2R,4R,5S,6S)-5-hydroxy-4-methoxy-4,6-dimethyltetrahydro-2H-pyran-2-yl)oxy)-3,5,8,10,12,14-hexamethyl-15-oxo-1-oxa-6-azacyclopentadecan-11-yl)oxy)-3-hydroxy-6-methyltetrahydro-2H-pyran-4-yl)-1,3-dimethyl-3-phenylurea], for which the IC50 in the test with IL-6 came out at 65 µM; with TNF-α it was 37 µM. Moreover, in the test on IL-1β, the “IL-1β OS of LPS” value amounted to 40 µM.
With `CC[C@H]1OC(=O)[C@H](C)[C@@H](O[C@H]2C[C@@](C)(OC)[C@H](O)[C@H](C)O2)[C@H](C)[C@@H](O[C@@H]2O[C@H](C)C[C@H](N(C)C(=O)N(C)c3ccccc3)[C@H]2O)[C@](C)(O)C[C@@H](C)CN[C@H](C)[C@@H](O)[C@]1(C)O` [Example B-3a, 1-((2S,3R,4S,6R)-2-(((2R,3S,4R,5R,8R,10R,11R,12S,13S,14R)-2-ethyl-3,4,10-trihydroxy-13-(((2R,4R,5R,6S)-5-hydroxy-4-methoxy-4,6-dimethyltetrahydro-2H-pyran-2-yl)oxy)-3,5,8,10,12,14-hexamethyl-15-oxo-1-oxa-6-azacyclopentadecan-11-yl)oxy)-3-hydroxy-6-methyltetrahydro-2H-pyran-4-yl)-1,3-dimethyl-3-phenylurea], the IC50 in the test with IL-6 was determined as 26 µM; with TNF-α it was 12 µM. Moreover, the “IL-1β OS of LPS” value in the test with IL-1β amounted to 16 µM.
Take `CC[C@H]1OC(=O)[C@H](C)[C@@H](O[C@H]2C[C@@](C)(OC)[C@@H](O)[C@H](C)O2)[C@H](C)[C@@H](O[C@@H]2O[C@H](C)C[C@H](N(C)C(=O)Nc3ccc(N(C)C)cc3)[C@H]2O)[C@](C)(O)C[C@@H](C)CN(C)[C@H](C)[C@@H](O)[C@]1(C)O` [Example B-7, 3-(4-(dimethylamino)phenyl)-1-((2S,3R,4S,6R)-2-(((2R,3S,4R,5R,8R,10R,11R,12S,13S,14R)-2-ethyl-3,4,10-trihydroxy-13-(((2R,4R,5S,6S)-5-hydroxy-4-methoxy-4,6-dimethyltetrahydro-2H-pyran-2-yl)oxy)-3,5,6,8,10,12,14-heptamethyl-15-oxo-1-oxa-6-azacyclopentadecan-11-yl)oxy)-3-hydroxy-6-methyltetrahydro-2H-pyran-4-yl)-1-methylurea]: the IC50 with IL-6 is 143 µM; in the test on TNF-α it was 156 µM. Further, in the test on IL-1β, the “IL-1β OS of LPS” value was 100 µM.
For `CCCSC[C@]1(O)[C@H](C)O[C@@H](O[C@H]2[C@H](C)[C@@H](O[C@@H]3O[C@H](C)C[C@H](N(C)C(=O)N(C)c4ccccc4)[C@H]3O)[C@](C)(O)C[C@@H](C)CN[C@H](C)[C@@H](O)[C@](C)(O)[C@@H](CC)OC(=O)[C@@H]2C)C[C@@]1(C)OC` [Example D-2, 1-((2S,3R,4S,6R)-2-(((2R,3S,4R,5R,8R,10R,11R,12S,13S,14R)-2-ethyl-3,4,10-trihydroxy-13-(((2R,4R,5S,6S)-5-hydroxy-4-methoxy-4,6-dimethyl-5-((propylthio)methyl)tetrahydro-2H-pyran-2-yl)oxy)-3,5,8,10,12,14-hexamethyl-15-oxo-1-oxa-6-azacyclopentadecan-11-yl)oxy)-3-hydroxy-6-methyltetrahydro-2H-pyran-4-yl)-1,3-dimethyl-3-phenylurea] the same measures were 30 µM, 20 µM and 16 µM.
As for `CC[C@H]1OC(=O)[C@H](C)[C@@H](O[C@H]2C[C@@](C)(OC)[C@](O)(CNCCOC)[C@H](C)O2)[C@H](C)[C@@H](O[C@@H]2O[C@H](C)C[C@H](N(C)C(=O)N(C)c3ccccc3)[C@H]2O)[C@](C)(O)C[C@@H](C)CN[C@H](C)[C@@H](O)[C@]1(C)O` [Example H-18, 1-((2S,3R,4S,6R)-2-(((2R,3S,4R,5R,8R,10R,11R,12S,13S,14R)-2-ethyl-3,4,10-trihydroxy-13-(((2R,4R,5S,6S)-5-hydroxy-4-methoxy-5-(((2-methoxyethyl)amino)methyl)-4,6-dimethyltetrahydro-2H-pyran-2-yl)oxy)-3,5,8,10,12,14-hexamethyl-15-oxo-1-oxa-6-azacyclopentadecan-11-yl)oxy)-3-hydroxy-6-methyltetrahydro-2H-pyran-4-yl)-1,3-dimethyl-3-phenylurea], the IC50 with IL-6 was 165 µM; in the test with TNF-α, 24 µM. For the same molecule, the “IL-1β OS of LPS” value in the test on IL-1β turned out to be 40 µM.
Regarding `CC[C@H]1OC(=O)[C@H](C)[C@@H](O[C@H]2C[C@@](C)(OC)[C@](O)(CNCCCOC)[C@H](C)O2)[C@H](C)[C@@H](O[C@@H]2O[C@H](C)C[C@H](N(C)C(=O)N(C)c3ccccc3)[C@H]2O)[C@](C)(O)C[C@@H](C)CN[C@H](C)[C@@H](O)[C@]1(C)O` [Example H-19, 1-((2S,3R,4S,6R)-2-(((2R,3S,4R,5R,8R,10R,11R,12S,13S,14R)-2-ethyl-3,4,10-trihydroxy-13-(((2R,4R,5S,6S)-5-hydroxy-4-methoxy-5-(((3-methoxypropyl)amino)methyl)-4,6-dimethyltetrahydro-2H-pyran-2-yl)oxy)-3,5,8,10,12,14-hexamethyl-15-oxo-1-oxa-6-azacyclopentadecan-11-yl)oxy)-3-hydroxy-6-methyltetrahydro-2H-pyran-4-yl)-1,3-dimethyl-3-phenylurea], the IC50 in the test on IL-6 is 181 µM; with TNF-α, 70 µM. Besides, the “IL-1β OS of LPS” value with IL-1β came out at 100 µM.

Source of the values: US12295936B2, “Immunomodulating urea azalides” (Zoetis Services LLC, priority 2020, dated 2025).
